# Article PMC11475570, “Impact of Optimized Ku–DNA Binding Inhibitors on the Cellular and In Vivo DNA Damage Response” (Cancers, 2024)
# “And” between values parts separate entries of the source, which are not always exact repeats. Identical values can stand only once.
# Legend:
# DNA-PK = target: T1, DNA-PK (Homo sapiens, UniProt P12956+P13010); experiment: DNA-PK kinase assay (phosphate transfer to p53 peptide); type: biochemical; conditions: for IC50: DNA-dependent phosphate transfer to synthetic p53 peptide, purified DNA-PK, mean and SD of triplicate
# T1 construct: made in house; Ku 70/80 from baculovirus-infected Sf9 cells
# T1 sequence (P12956 whole entry): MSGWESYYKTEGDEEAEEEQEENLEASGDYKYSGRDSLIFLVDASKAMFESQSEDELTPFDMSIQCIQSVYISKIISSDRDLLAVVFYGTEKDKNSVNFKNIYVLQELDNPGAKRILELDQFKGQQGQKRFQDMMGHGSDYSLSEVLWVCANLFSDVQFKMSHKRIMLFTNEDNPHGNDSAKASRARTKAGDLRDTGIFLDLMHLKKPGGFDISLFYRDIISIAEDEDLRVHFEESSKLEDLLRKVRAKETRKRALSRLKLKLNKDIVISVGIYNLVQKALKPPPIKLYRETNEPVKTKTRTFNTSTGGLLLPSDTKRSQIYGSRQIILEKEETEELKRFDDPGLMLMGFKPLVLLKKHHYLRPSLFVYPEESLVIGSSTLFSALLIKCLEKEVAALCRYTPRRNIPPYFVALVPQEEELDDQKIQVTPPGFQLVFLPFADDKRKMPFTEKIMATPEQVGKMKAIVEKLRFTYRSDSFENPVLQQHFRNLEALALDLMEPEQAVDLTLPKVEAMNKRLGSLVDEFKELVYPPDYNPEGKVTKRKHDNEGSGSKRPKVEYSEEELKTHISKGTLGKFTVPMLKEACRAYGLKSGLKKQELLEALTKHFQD
# T1 sequence (P13010 whole entry): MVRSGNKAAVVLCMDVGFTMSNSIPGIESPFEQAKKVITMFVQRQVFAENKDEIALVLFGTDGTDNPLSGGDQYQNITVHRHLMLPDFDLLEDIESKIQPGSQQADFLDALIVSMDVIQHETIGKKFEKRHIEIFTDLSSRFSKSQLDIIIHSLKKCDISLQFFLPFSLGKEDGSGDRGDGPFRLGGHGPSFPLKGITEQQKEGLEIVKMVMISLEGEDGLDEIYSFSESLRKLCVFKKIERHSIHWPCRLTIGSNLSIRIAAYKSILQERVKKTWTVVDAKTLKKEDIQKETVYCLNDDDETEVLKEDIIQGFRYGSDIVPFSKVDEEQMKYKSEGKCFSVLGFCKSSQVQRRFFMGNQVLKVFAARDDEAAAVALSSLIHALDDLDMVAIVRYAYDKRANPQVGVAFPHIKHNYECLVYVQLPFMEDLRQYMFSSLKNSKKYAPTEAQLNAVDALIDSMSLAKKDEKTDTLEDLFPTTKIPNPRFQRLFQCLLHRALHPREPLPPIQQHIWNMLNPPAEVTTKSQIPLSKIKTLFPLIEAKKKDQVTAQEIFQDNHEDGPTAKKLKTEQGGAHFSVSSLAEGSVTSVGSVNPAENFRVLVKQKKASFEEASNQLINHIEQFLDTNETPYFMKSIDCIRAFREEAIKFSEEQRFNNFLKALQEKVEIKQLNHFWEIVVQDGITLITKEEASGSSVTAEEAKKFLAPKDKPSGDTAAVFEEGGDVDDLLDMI
# Experimental: (§1) The inhibitory activity of Ku-DBis on Ku-DNA binding was evaluated in vitro using Electrophoretic mobility shift assays (EMSA) with a [^32P]-labeled 30-bp duplex DNA and purified Ku 70/80. Kinase assays were performed to measure the DNA-dependent transfer of [^32P] from γ-[^32P] ATP to a synthetic p53-based peptide substrate, both as previously described. Both EMSA and DNA-PK inhibitor titration assays were performed in triplicate. Data were fit to standard binding curves using GraphPad Prism to determine IC50 values.
# Ku 70/80 = target: T2, Ku 70/80 (Homo sapiens, UniProt P12956+P13010); experiment: EMSA Ku–DNA binding inhibition; conditions: 32P-labeled 30-bp duplex DNA, purified Ku 70/80, mean and SD of triplicate
# T2 construct: made in house; host or cells: baculovirus-infected Sf9 cells
# T2 sequence (P12956 whole entry): as the sequence (P12956 whole entry) above
# T2 sequence (P13010 whole entry): as the sequence (P13010 whole entry) above
# Experimental: as §1
# H460 NSCLC cells = experiment: Cellular uptake by HPLC; type: in vitro ADME, Human; conditions: H460, 10 µM, media with 10% FBS
# Experimental: Cellular uptake was evaluated in two NSCLC cell lines, H460 and A549. Cells were seeded into 6-well plates at a density of 1 × 10^6 cells per well and cultured as monolayers at 37 °C and 5% CO2 for 18–24 h. Ku-DBis were added to the media at a concentration of 10 µM and incubation continued for the times indicated. Media were removed, cells were washed 3 times with PBS, 1 mL of methanol was added to each well, and cells were agitated overnight at 4 °C. The methanol was collected, and wells were washed with an additional 1 mL of methanol that was then pooled with the original. The methanol extracts were then dried under vacuum, resuspended in methanol, and analyzed by HPLC using a 250 × 4.6 and 5 μm C-18 reverse phase column with 1% TFA mobile phase in acetonitrile (ACN) gradient elution. Absorption was monitored at 425 nm, HPLC peaks were quantified using a standard curve, and picomoles of compound per million cells was calculated.
# MDA-MB-468 = experiment: Bleomycin-sensitization activity, CCK-8; type: cell-based, Human; conditions: BRCA1 wild-type MDA-MB-468
# Experimental: (§2) Cell metabolism/viability was assessed using a mitochondrial metabolism assay (CCK-8) kit (Cell Counting Kit-8, Cat: CK04, Dojindo Laboratories, Rockville, MD, USA) as previously described. Briefly, cells were seeded at a density of 3 × 10^3 cells per well in 96-well plates and allowed to adhere and stretch for 18–24 h prior to treatment. Cells were pre-treated with Ku-DBi for 24 h before bleomycin treatments. Subsequently, cells were incubated for an additional 48 h at 37 °C after which CCK-8 assay was performed. The absorbance of the formed formazan product in each well was measured at 450 nm and compared to vehicle-treated controls to determine percent cell viability. The results represent the average and SEM of triplicate determinations.
# MDA-MB-436 = experiment: Bleomycin-sensitization activity, CCK-8; type: cell-based, Human; conditions: BRCA1 mutant MDA-MB-436
# Experimental: as §2
# H460 = experiment: CCK-8 cell viability, single agent; type: cell-based, Human
# Experimental: as §2
# H1299 = experiment: CCK-8 cell viability, single agent; type: cell-based, Human
# Experimental: as §2
# MDA-436 = experiment: CCK-8 cell viability, single agent; type: cell-based, Human
# Experimental: as §2
# H23 = experiment: CCK-8 cell viability, single agent; type: cell-based, Human
# Experimental: as §2
# MDA-468 = experiment: CCK-8 cell viability, single agent; type: cell-based, Human
# Experimental: as §2
# A549 = experiment: CCK-8 cell viability, single agent; type: cell-based, Human
# Experimental: as §2
smiles,measurement,setting,value
COc1cccc(NC(=O)c2cc(-c3ccc(/C=C4\C(=O)N(c5cccc(C(=O)O)c5)c5ccccc54)o3)ccc2OC)c1 [GL-3395],"DNA-PK inhibitory activity, fold more active than fluoro-modified counterparts (3618 and 3649)",DNA-PK,~ 2.5 fold
same,IC50,DNA-PK,0.77 ± 0.24 µM
same,IC50,Ku 70/80,2.4 µM and 2.41 µM
O=C(O)c1cccc(N2C(=O)/C(=C\c3ccc(-c4ccc(F)c(C(=O)Nc5cccc(OC(F)(F)F)c5)c4)o3)c3ccccc32)c1 [GL-3618],"Cellular uptake, fold more efficient than methoxy-derivatives 3395 and 3649",H460 NSCLC cells,~ 3 fold
same,IC50,DNA-PK,1.72 ± 0.15 µM
same,IC50,Ku 70/80,3.36 ± 0.89 µM
COc1cccc(NC(=O)c2cc(-c3ccc(/C=C4\C(=O)N(c5cccc(C(=O)O)c5)c5ccccc54)o3)ccc2F)c1 [GL-3649],IC50,DNA-PK,1.74 ± 0.61 µM
same,IC50,Ku 70/80,3.55 ± 0.4 µM
"O=c1cc(N2CCOCC2)oc2c(-c3cccc4c3sc3ccccc34)cccc12 [NU-7441, reference compound]",Change in sensitivity to bleomycin,MDA-MB-468,increase in sensitivity
same,Change in sensitivity to bleomycin,MDA-MB-436,decrease in sensitivity to bleomycin
same,Cell Viability at 25 µM,H460; 25 µM,8.3 ± 0.1 %ctrl
same,IC50,"H460; H460, CCK-8, 72 h, mean ± SD",4.8 ± 1 µM
same,Cell Viability at 25 µM,H1299; 25 µM,17.8 ± 5.4 %ctrl
same,IC50,"H1299; H1299, CCK-8, 72 h, mean ± SD",4 ± 0.9 µM
same,Cell Viability at 25 µM,MDA-436; 25 µM,17.8 ± 1.3 %ctrl
same,IC50,"MDA-436; MDA-436, CCK-8, 72 h, mean ± SD",8.1 ± 0.9 µM
same,Cell Viability at 25 µM,H23; 25 µM,4.8 ± 0.5 %ctrl
same,Fold more sensitive than the other NSCLC lines,H23; ATM-null H23 cells,~ 2 fold
same,IC50,"H23; H23, CCK-8, 72 h, mean ± SD",2.2 ± 0.1 µM
same,Cell Viability at 25 µM,MDA-468; 25 µM,4.1 ± 0.9 %ctrl
same,IC50,"MDA-468; MDA-468, CCK-8, 72 h, mean ± SD",5.2 ± 0.4 µM
same,Cell Viability at 25 µM,A549; 25 µM,13.6 ± 1.4 %ctrl
same,IC50,"A549; A549, CCK-8, 72 h, mean ± SD",~4.5 µM
